According to paper PMC10566733 (PLOS ONE, 2023):
Several values for one entry are separate records, joined by “and”; a condition that tells them apart may be missing. Identical values can stand only once. Like-named read-outs stand apart in the source and are kept apart here. Residues, ends and D or L forms follow the SMILES beside them. *: point of attachment. FITC = O=C1OC2(c3ccc(O)cc3Oc3cc(O)ccc32)c2ccc(NC(=S)*)cc21

Experiments:
[1] = test system: bEnd.3 mouse brain endothelial cells
Procedure: The bEnd.3 (mouse brain endothelial cell) cell line, purchased from Bioresource Collection and Research Center (BCRC, Taiwan), was used in this study. Prior to experiments, the cells were cultured in Dulbecco’s modified Eagle’s medium (DMEM; HyClone, cat. #SH30003.02) with 10% fetal bovine serum (Gibco, cat. #10437028) and 1% penicillin-streptomycin (Gibco, cat. #15140112), and were passaged every 2–3 days with 0.25% trypsin-EDTA (Gibco, cat. #25200056).
Cellular metabolic activity was measured by MTT (thiazolyl blue tetrazolium bromide) assay 24 h after treatment by normothermia (37°C), hypothermia (4°C), sodium azide (NaN3)/2-deoxy-D-glucose (2-DG), cytochalasin D, 5-(N-ethyl-N-isopropyl)-amiloride (EIPA), or methyl-beta-cyclodextrin (MβCD). In brief, MTT assay was performed with 2000 cells in culture by first replacing the cell culture medium with medium containing 0.5 mg/ml MTT (Alfa Aesar, cat. #L11939). After a 4-h incubation period to allow for MTT metabolism, the MTT-containing medium was replaced with 100 μl of dimethyl sulfoxide (DMSO; JT Baker), and the culture plate was placed on a shaker for 10 min to allow for dissolution of the violet crystal metabolites. Thereafter, the optical density of the metabolite was measured at 570 nm by an ELISA reader. The optical density of the metabolite in the hypothermia and drug treatment groups was expressed as percentage relative to the optical density of the metabolite in the normothermia and control groups, respectively.

[2] = test system: monolayer of bEnd.3 mouse brain endothelial cells; assay: Permeability across a monolayer of brain endothelial cells (in vitro BBB model); type: in vitro ADME; parameters: Diffusion of FITC-TAT across bEnd.3 monolayer / Diffusion of FITC-linked peptide across bEnd.3 monolayer / Diffusion of FITC-TAT across bEnd.3 monolayer, FITC-TAT + TAT / Diffusion of FITC-TAT across bEnd.3 monolayer, FITC-TAT + TATK/R>A: unit not given here; conditions: for Rate of diffusion across the monolayer compared with FITC-TAT: bEnd.3 monolayer; for Diffusion of FITC-linked peptide across bEnd.3 monolayer: fluorescence spectrophotometry
[3] = peptide 1 μM (Fig 3A), diffusion time 0.1 h, individual cultures n = 4
[4] = peptide 1 μM (Fig 3A), diffusion time 4 h, individual cultures n = 4
[5] = peptide 1 μM (Fig 3A), diffusion time 12 h, individual cultures n = 4
[6] = peptide 1 μM (Fig 3A), diffusion time 24 h, individual cultures n = 4
[7] = peptide 3 μM (Fig 3B), diffusion time 0.1 h, individual cultures n = 4
[8] = peptide 3 μM (Fig 3B), diffusion time 4 h, individual cultures n = 4
[9] = peptide 3 μM (Fig 3B), diffusion time 12 h, individual cultures n = 4
[10] = peptide 3 μM (Fig 3B), diffusion time 24 h, individual cultures n = 4
[11] = peptide 10 μM (Fig 3C), diffusion time 0.1 h, individual cultures n = 4
[12] = peptide 10 μM (Fig 3C), diffusion time 4 h, individual cultures n = 4
[13] = peptide 10 μM (Fig 3C), diffusion time 12 h, individual cultures n = 4
[14] = peptide 10 μM (Fig 3C), diffusion time 24 h, individual cultures n = 4

C=C1[C@@H](C)[C@H]2[C@H](Cc3ccccc3)NC(=O)[C@]23[C@H](OC(C)=O)/C=C/[C@@](C)(O)C(=O)[C@@H](C)C/C=C/[C@H]3[C@@H]1O [cytochalasin D]
Effect on cellular metabolic activity, MTT ([1]; bEnd.3, pre-treatment for 30 min followed by washout, Fig 4A): had no effect on cellular metabolic activity
Effect on cellular metabolic activity, MTT ([1]; bEnd.3, sustained treatment for 24 h, Fig 4A): increased cellular metabolic activity in a concentration-dependent manner

C[C@H](NC(=O)[C@H](C)NC(=O)[C@H](C)NC(=O)[C@H](CCC(N)=O)NC(=O)[C@H](C)NC(=O)[C@H](C)NC(=O)[C@H](C)NC(=O)[C@H](C)NC(=O)[C@H](C)NC(=O)CNC(=O)[C@H](Cc1ccc(O)cc1)NC(=S)Nc1ccc2c(c1)C(=O)OC21c2ccc(O)cc2Oc2cc(O)ccc21)C(=O)O [FITC-TATK/R>A] ({FITC}-YGAAAAAQAAA-OH)
Rate of diffusion across the monolayer compared with FITC-TAT ([2]; 1 μM concentration, Fig 3A): much lower rate than FITC-TAT
Rate of diffusion across the monolayer compared with FITC-TAT ([2]; 3 μM concentration, Fig 3B): much lower rate than FITC-TAT
Rate of diffusion across the monolayer compared with FITC-TAT ([2]; 10 μM concentration, Fig 3C): much lower rate than FITC-TAT
Diffusion of FITC-linked peptide across bEnd.3 monolayer [2, 3]: 16.9505 and 16.508 and 16.5507 and 15.9581
Diffusion of FITC-linked peptide across bEnd.3 monolayer [2, 4]: 28.9506 and 32.0869 and 31.9736 and 31.2514
Diffusion of FITC-linked peptide across bEnd.3 monolayer [2, 5]: 42.2787 and 47.1236 and 45.2026 and 46.9823
Diffusion of FITC-linked peptide across bEnd.3 monolayer [2, 6]: 65.8175 and 68.5893 and 66.6226 and 69.1937
Diffusion of FITC-linked peptide across bEnd.3 monolayer [2, 7]: 6.156 and 4.865 and 2.668 and 3.238
Diffusion of FITC-linked peptide across bEnd.3 monolayer [2, 8]: 19.8822 and 11.958 and 7.983 and 9.049
Diffusion of FITC-linked peptide across bEnd.3 monolayer [2, 9]: 39.1651 and 26.1724 and 19.7108 and 16.4957
Diffusion of FITC-linked peptide across bEnd.3 monolayer [2, 10]: 49.6596 and 34.462 and 23.6779 and 22.9503
Diffusion of FITC-linked peptide across bEnd.3 monolayer [2, 11]: 1.811 and 1.623 and 2.572 and 1.851
Diffusion of FITC-linked peptide across bEnd.3 monolayer [2, 12]: 18.7947 and 19.4252 and 20.5729 and 16.0903
Diffusion of FITC-linked peptide across bEnd.3 monolayer [2, 13]: 38.7338 and 38.9661 and 39.2385 and 32.797
Diffusion of FITC-linked peptide across bEnd.3 monolayer [2, 14]: 65.0223 and 61.702 and 66.1075 and 57.2466
Diffusion of FITC-linked peptide across bEnd.3 monolayer ([2]; peptide 10 μM alone (Fig 3D), diffusion time 0.1 h, individual cultures n = 3): 2.221 and 2.035 and 1.973
Diffusion of FITC-linked peptide across bEnd.3 monolayer ([2]; peptide 10 μM alone (Fig 3D), diffusion time 12 h, individual cultures n = 3): 29.1435 and 26.4948 and 29.3071
Diffusion of FITC-linked peptide across bEnd.3 monolayer ([2]; peptide 10 μM alone (Fig 3D), diffusion time 24 h, individual cultures n = 3): 54.4105 and 51.9054 and 56.2316

N=C(N)NCCC[C@H](NC(=O)[C@H](CCCNC(=N)N)NC(=O)[C@H](CCCCN)NC(=O)[C@H](Cc1ccc(O)cc1)NC(=O)[C@H](CCCNC(=N)N)NC(=O)[C@H](CCCNC(=N)N)NC(=O)[C@H](CCCNC(=N)N)NC(=O)[C@H](CCCNC(=N)N)NC(=O)[C@H](CCCCN)NC(=S)Nc1ccc2c(c1)C(=O)OC21c2ccc(O)cc2Oc2cc(O)ccc21)C(=O)N[C@@H](CCC(N)=O)C(=O)NCC(=O)O [FITC-TATscrambled] ({FITC}-KRRRRYKRRQG-OH)
Rate of diffusion across the monolayer compared with FITC-TAT ([2]; 1 μM concentration, Fig 3A): marginally higher rate than FITC-TAT
Rate of diffusion across the monolayer compared with FITC-TAT ([2]; 3 μM concentration, Fig 3B): rate equal to that of FITC-TAT
Rate of diffusion across the monolayer compared with FITC-TAT ([2]; 10 μM concentration, Fig 3C): marginally lower than FITC-TAT
Diffusion of FITC-linked peptide across bEnd.3 monolayer [2, 3]: 16.6121 and 16.5353 and 16.6054 and 15.9771
Diffusion of FITC-linked peptide across bEnd.3 monolayer [2, 4]: 37.5047 and 37.4667 and 38.2192 and 36.5367
Diffusion of FITC-linked peptide across bEnd.3 monolayer [2, 5]: 71.5027 and 70.7894 and 73.1753 and 67.019
Diffusion of FITC-linked peptide across bEnd.3 monolayer [2, 6]: 112.675 and 114.406 and 111.607 and 110.916
Diffusion of FITC-linked peptide across bEnd.3 monolayer [2, 7]: 5.913 and 5.203
Diffusion of FITC-linked peptide across bEnd.3 monolayer [2, 8]: 27.0594 (2×) and 32.066 and 20.6139
Diffusion of FITC-linked peptide across bEnd.3 monolayer [2, 9]: 76.2224 (2×) and 56.9939 and 73.6994
Diffusion of FITC-linked peptide across bEnd.3 monolayer [2, 10]: 111.452 (2×) and 91.4132 and 89.6289
Diffusion of FITC-linked peptide across bEnd.3 monolayer [2, 11]: 1.995 and 1.727 and 1.576 and 1.501
Diffusion of FITC-linked peptide across bEnd.3 monolayer [2, 12]: 22.9531 and 16.5248 and 15.9626 and 15.9604
Diffusion of FITC-linked peptide across bEnd.3 monolayer [2, 13]: 52.8508 and 41.023 and 42.3549 and 44.9043
Diffusion of FITC-linked peptide across bEnd.3 monolayer [2, 14]: 105.008 and 91.7182 and 94.732 and 94.0226

CCN(c1nc(N)c(C(=O)N=C(N)N)nc1Cl)C(C)C [EIPA, 5-(N-ethyl-N-isopropyl)-amiloride]
Effect on cellular metabolic activity, MTT [1]: markedly decreased cellular metabolic activity

methyl-beta-cyclodextrin [MβCD]
Effect on cellular metabolic activity, MTT [1]: markedly decreased cellular metabolic activity
